Assay results: patent US20130210851A1, “Crystalline forms of a hexahydrofuro[3,4-c]quinoline derivative” (Boehringer Ingelheim International GmbH, priority 2011, published 2013)
Entries after “also recorded” stand apart in the source; their conditions may differ. Read-outs that look alike come from different tables or passages of the source. One block for each compound: values may come before it.

Experiments:
Type in all cases: physicochemical
[1] = Hygroscopic behaviour, water sorption isotherms (DVS-1); details: 25° C.; for hygroscopicity (in words): sorption isotherms 10% to 90% r.h.; for uptake of water: up to 90% r.h.
Experimental: To study the hygroscopic behaviour of this material, sorption isotherms are registered on a DVS-1 water sorption monitor from Surface Measurement Systems. Adsorption and desorption isotherms are performed at 25° C. with 10% r.h. step intervals ranging from 10% r.h. up to 90% r.h.

[2] = Solid state stability under harsh stress conditions
Excerpt: Under all applied severe stress conditions only very low or minor decomposition (Σ</=about 6% degradation impurities measured as peak area percentage from HPLC-diagrams using a standard gradient technique) can be observed.

[3] = Intrinsic dissolution rate in aqueous media (rotating disc method); details: 37° C., 200 rpm
Experimental: The intrinsic dissolution rate of the crystalline hydrochloride salt form of (3R,9S)-4-isopropyl-7,7-dimethyl-3-(4-(trifluoromethyl)phenyl)-2′,3′,5′,6,6′,7,8,9-octahydro-3H-spiro[furo[3,4-c]quinoline-1,4′-pyran]-9-ol is determined in aqueous media covering a range of pH 1.1-7.4 using the rotating disc method which maintains a constant surface area. 5 mg drug substance is compressed to form a disc at 356.1 N for 60 s. These discs are mounted to specially designed sample holders which fit into a Sotax dissolution tester. The dissolution media (37° C.) are stirred at 200 rpm. Samples are automatically withdrawn every second minute from the dissolution vessel and assayed via UV spectrophotometry. The intrinsic dissolution rate expressed in μg/cm^2/min is calculated using the slope of the concentration versus time plot and from the linear portion of the slope of the dissolution curve, volume of dissolution medium (35 ml) and area (diameter: 2 mm) of the exposed disk.

[4] = Solubility of the saturated solution in aqueous media; details: thermodynamic from solid, 48 h shaking at room temperature, read-out: solubility RT - values

hygroscopicity (in words) [1]: not hygroscopic | uptake of water [1]: about 0.9%
Structure (SMILES): Br.CC(C)c1nc2c(c3c1[C@@H](c1ccc(C(F)(F)F)cc1)OC31CCOCC1)[C@@H](O)CC(C)(C)C2 [crystalline hydrobromide salt form, Hydrogen Bromide Salt of (3R,9S)-4-isopropyl-7,7-dimethyl-3-(4-(trifluoromethyl)phenyl)-2′,3′,5′,6,6′,7,8,9-octahydro-3H-spiro[furo[3,4-c]quinoline-1,4′-pyran]-9-ol]

hygroscopicity (in words) [1]: not hygroscopic | uptake of water [1]: about 0.2%
Structure (SMILES): CC(C)c1nc2c(c3c1[C@@H](c1ccc(C(F)(F)F)cc1)OC31CCOCC1)[C@@H](O)CC(C)(C)C2 [compound of formula (I), (3R,9S)-4-isopropyl-7,7-dimethyl-3-(4-(trifluoromethyl)phenyl)-2′,3′,5′,6,6′,7,8,9-octahydro-3H-spiro[furo[3,4-c]quinoline-1,4′-pyran]-9-ol]

decomposition, sum of degradation impurities (peak area percentage from HPLC) ([2]; all stress conditions: 24 hours at 105° C., 72 hours at 60° C. and 70% rel. humid., 24 hours in a Xenotester): ≤ 6% | solid state stability (in words) ([2]; harsh stress conditions for solid state): stable in the solid state | dissolution rate ([3]; 0.1N HCl): 230 μg/cm^2/min | dissolution rate ([3]; pH 2.2 (McIlvaine)): 250 μg/cm^2/min | dissolution rate ([3]; pH 3.0 (McIlvaine)): 60 μg/cm^2/min | dissolution rate ([3]; pH 4.0 (McIlvaine)): 10 μg/cm^2/min | dissolution rate ([3]; pH 4.5 (McIlvaine)): 10 μg/cm^2/min | dissolution rate ([3]; water): 10 μg/cm^2/min | solubility at 48 h ([4]; McIlvaine buffer, aqueous buffer, McIlvaine pH 2.2, intrinsic pH 2.0): 1600 µg/mL | solubility at 48 h ([4]; McIlvaine buffer, aqueous buffer, McIlvaine pH 3.0, intrinsic pH 3.0): 400 µg/mL | solubility at 48 h ([4]; McIlvaine buffer, aqueous buffer, McIlvaine pH 4.0, intrinsic pH 4.0): 90 µg/mL | solubility at 48 h ([4]; McIlvaine buffer, aqueous buffer, McIlvaine pH 4.5, intrinsic pH 4.6): 30 µg/mL | solubility at 48 h ([4]; McIlvaine buffer, aqueous buffer, McIlvaine pH 5.0, intrinsic pH 5.1): 3 µg/mL | solubility at 48 h ([4]; McIlvaine buffer, aqueous buffer, McIlvaine pH 6.0, intrinsic pH 6.2): < 3 µg/mL | solubility at 48 h ([4]; McIlvaine buffer, aqueous buffer, McIlvaine pH 6.8, intrinsic pH 7.0): < 3 µg/mL | solubility at 48 h ([4]; McIlvaine buffer, aqueous buffer, McIlvaine pH 7.4, intrinsic pH 7.7, determined by LC/MS): 0.26 µg/mL | solubility at 48 h ([4]; Sorensen buffer, aqueous buffer, Sorensen pH 10.0, intrinsic pH 9.6): < 3 µg/mL | solubility at 48 h ([4]; acetate buffer, aqueous buffer, Acetate pH 3.0, intrinsic pH 3.0): 200 µg/mL | solubility at 48 h ([4]; acetate buffer, aqueous buffer, Acetate pH 4.0, intrinsic pH 4.2): 60 µg/mL | solubility at 48 h ([4]; acetate buffer, aqueous buffer, Acetate pH 5.0, intrinsic pH 5.3): 6 µg/mL | solubility at 48 h ([4]; simulated gastric fluid, 0.01N HCl, intrinsic pH 1.9): 1900 µg/mL | solubility at 48 h ([4]; simulated gastric fluid, 0.1N HCl, intrinsic pH 0.9): 4100 µg/mL | solubility at 48 h ([4]; FaSSIF (Fasted State Simulated Intestinal), intrinsic pH 6.5): 20 µg/mL | solubility at 48 h ([4]; FeSSIF (Fed State Simulated Intestinal), intrinsic pH 5.0): 30 µg/mL | solubility at 48 h ([4]; water, intrinsic pH 1.6): 3100 µg/mL
Structure (SMILES): CC(C)c1nc2c(c3c1[C@@H](c1ccc(C(F)(F)F)cc1)OC31CCOCC1)[C@@H](O)CC(C)(C)C2.Cl [crystalline hydrochloride salt form, Hydrogen Chloride Salt of (3R,9S)-4-isopropyl-7,7-dimethyl-3-(4-(trifluoromethyl)phenyl)-2′,3′,5′,6,6′,7,8,9-octahydro-3H-spiro[furo[3,4-c]quinoline-1,4′-pyran]-9-ol]
hygroscopicity (in words) [1]: not hygroscopic; also recorded: non-hygroscopic
